Source: patent publication US20120070392A1, “COMPOSITION FOR INHIBITING ERYTHEMA CAUSED BY ULTRAVIOLET RADIATION CONTAINING A DIPEPTIDE AS ACTIVE INGREDIENT” (priority 2009, published 2012)

tested on: PGE2 production; assay: Inhibition of UVB-induced PGE2 production in cultured human keratinocytes (PGE2 assay kit, calibrated with MTT absorbance); assay type: cell-based; details: not given
Experimental: Human keratinocytes were seeded at a density of 1×10^5 cells/well to 6-well plates containing 2 mL of KGM(keratinocyte growth medium, Clonetics, San Diego, Calif., USA) per well and cultured overnight. Then, the medium was replaced with KBM(keratinocyte basal medium) supplemented with 0.1% BSA(bovine serum albumin) and the cells were cultured for an additional 24 hours. Subsequently, the cells were pre-treated for an additional 24 hours with 2 mL of the same medium containing 10 μg/ml of each of the dipeptides listed in Table 1. […] The pre-treated medium was transferred to new 24 well plates and 1 mL of DPBS(Dulbecco's phosphate buffered saline) was added to the cells in each well. During UV irradiation, the transferred medium was stored in a cell incubator. […] At this time, the control was covered with aluminum foil. After the removal of DPBS, the transferred medium was returned to each well. The cells were further cultured for 24 hours, after which 1 mL of the medium was transferred to microcentrifuge tubes. […] The supernatants were then removed and the formazan crystals were solubilized in 1 ml of DMSO(dimethylsulfoxide). One hundred μL of the solution was transferred to each well of 96-well plates and an optical density was determined at 540 nm using an ELISA(enzyme-linked immunosorbent assay) reader. […] The concentration of PGE2 was determined using a PGE2 Assay Kit(KGE004, R&D Systems, Inc., Minneapolis, Minn., USA) according to the manufacturer's instruction. […] After removal of the reaction, the wells were washed five times with 400 μL of wash buffer. To each well was added 200 μL of a substrate solution, followed by incubation for 20 30 min. The reaction was terminated with 50 μL of a stop solution per well before determining absorbance at 450 nm on an ELISA reader. The PGE2 concentration of each sample was calculated from the standard graph and calibrated with the absorbance obtained in the MTT assay to determine their inhibitory activity against PGE2 production.

Compound | % Inhibition against PGE2 Production
leucine-histidine [LH] | 81.7%
proline-glutamine [PQ] | 78.1%
glutamine-tyrosine [QY] | 54.6%
tyrosine-glutamine [YQ] | 13.5%
glutamic acid-histidine [EH] | 75.4%
asparagine-proline [NP] | 70.6%
methionine-aspartic acid [MD] | 64.8%
cysteine-methionine [CM] | 69.7%
tyrosine-isoleucine [YI] | 44.3%
histidine-tyrosine [HY] | 77.9%
tyrosine-leucine [YL] | 24.7%
methionine-arginine [MR] | 36.5%
proline-tryptophan [PW] | 85.5%
asparagine-histidine [NH] | 65.8%
serine-histidine [SH] | 51.5%
NCC(=O)O.O=C(O)[C@@H]1CCCN1 [PG, proline-glycine] | 80.7%
tyrosine-methionine [YM] | 89.6%
glutamic acid-proline [EP] | 80.8%
tyrosine-glutamic acid [YE] | 74.2%
phenylalanine-tyrosine [FY] | 88.0%
asparagine-threonine [NT] | 57.2%

Compound | % Inhibition against PGE2 Production
proline-tyrosine [PY] | 24.8%
threonine-methionine [TM] | 67.9%
threonine-valine [TV] | 43.9%
lysine-tyrosine [KY] | 72.6%
histidine-lysine [HK] | 43.8%
NCC(=O)O.N[C@@H](CC(=O)O)C(=O)O [GD, glycine-aspartic acid] | 23.8%
proline-phenylalanine [PF] | 32.8%
isoleucine-proline [IP] | 59.5%
tyrosine-threonine [YT] | 91.5%
threonine-proline [TP] | 65.7%
arginine-tyrosine [RY] | 67.3%
aspartic acid-histidine [DH] | 59.2%
tyrosine-aspartic acid [YD] | 88.0%
tryptophan-proline [WP] | 68.3%
valine-asparagine [VN] | 31.3%
asparagine-methionine [NM] | 89.5%
alanine-proline [AP] | 26.3%
alanine-valine [AV] | 44.8%
isoleucine-tyrosine [IY] | 68.6%
cysteine-asparagine [CN] | 92.0%
NCC(=O)O.N[C@@H](CC(=O)O)C(=O)O [DG, aspartic acid-glycine] | 79.7%

same assay, conditions: 10 μg/ml dipeptide, 24 h pre-treatment, human keratinocytes, UVB 100 mJ/cm^2, medium assayed 24 h after irradiation; 0% or lower expressed as zero; 10% or more regarded as effective

Compound | % Inhibition against PGE2 Production
histidine-phenylalanine [HF] | 43.2%
tryptophan-alanine [WA] | 88.5%
NCC(=O)O.N[C@@H](Cc1c[nH]c2ccccc12)C(=O)O [WG, tryptophan-glycine] | 91.3%
phenylalanine-alanine [FA] | 48.8%
leucine-alanine | 47.2%
isoleucine-alanine [IA] | 38.6%
tyrosine-alanine [YA] | 80.2%
phenylalanine-histidine [FH] | 39.2%
alanine-alanine [AA] | 78.4%
phenylalanine-methionine [FM] | 67.5%

same assay, conditions: 10 μg/ml dipeptide, 24 h pre-treatment, human keratinocytes, UVB 100 mJ/cm^2, medium assayed 24 h after irradiation; […]; 10% or more regarded as effective

Compound | % Inhibition against PGE2 Production
glutamine-glutamine [QQ] | 92.5%
isoleucine-serine | 66.0%
lysine-valine [KV] | 71.6%
arginine-cysteine [RC] | 95.1%
threonine-arginine [TR] | 53.0%
lysine-cysteine [KC] | 20.2%
glutamine-asparagine [QN] | 13.9%
glutamic acid-glutamic acid [EE] | 86.5%
phenylalanine-tryptophan [FW] | 92.9%
serine-glutamic acid | 44.0%
phenylalanine-arginine [FR] | 92.9%
aspartic acid-serine [DS] | 84.0%
isoleucine-aspartic acid | 64.6%
asparagine-glutamine [NQ] | 70.1%
isoleucine-threonine [IT] | 18.9%
threonine-lysine [TK] | 39.0%
serine-glutamine [SQ] | 58.8%
phenylalanine-aspartic acid [FD] | 13.7%
arginine-tryptophan [RW] | 34.9%

Compound | % Inhibition against PGE2 Production
arginine-glutamic acid [RE] | 58.8%
glutamine-threonine [QT] | 25.0%
alanine-arginine | 95.7%
aspartic acid-glutamic acid [DE] | 58.5%
glutamic acid-lysine [EK] | 76.5%
alanine-lysine [AK] | 90.3%
alanine-isoleucine [AI] | 60.1%
aspartic acid-isoleucine [DI] | 25.9%
cysteine-glutamic acid [CE] | 54.4%
threonine-serine [TS] | 55.7%
glutamine-arginine [QR] | 33.6%
lysine-tryptophan [KW] | 76.9%
aspartic acid-threonine [DT] | 95.8%
alanine-aspartic acid [AD] | 58.3%
tryptophan-aspartic acid [WD] | 85.9%
serine-lysine [SK] | 44.9%
glutamic acid-arginine [ER] | 72.8%
aspartic acid-leucine [DL] | 75.8%
glutamic acid-aspartic acid [ED] | 85.1%

Compound | % Inhibition against PGE2 Production
threonine-tryptophan [TW] | 54.8%
arginine-leucine [RL] | 30.4%
glutamic acid-threonine [ET] | 67.9%
tryptophan-lysine [WK] | 78.3%
asparagine-phenylalanine [NF] | 88.2%
serine-threonine [ST] | 79.5%
serine-leucine [SL] | 81.6%
aspartic acid-lysine [DK] | 76.6%
aspartic acid-cysteine [DC] | 77.6%
glutamic acid-phenylalanine [EF] | 13.3%
leucine-valine [LV] | 79.9%
glutamine-aspartic acid [QD] | 66.0%
tryptophan-phenylalanine [WF] | 81.7%
alanine-serine [AS] | 72.5%
lysine-threonine [KT] | 77.8%
valine-isoleucine [VI] | 51.7%
valine-aspartic acid [VD] | 45.3%
histidine-tryptophan [HW] | 21.6%
arginine-serine [RS] | 50.3%
